Results taken from patent US10675293B2, “Nucleoside agents for the reduction of the deleterious activity of extended nucleotide repeat containing genes” (The Board of Trustees of the Leland Stanford Junior …, priority 2015, dated 2020).
Entries after “also recorded” stand apart in the source; their conditions may differ.

What was measured:
[1] = system: mutant Huntingtin protein; test: Western blot of mutant HTT in Huntington's disease patient iPSC ND36999; assay type: cell-based, human; details: iPSC with 180 CAG repeats, 24 hr
Method: (§1) Cell samples were lysed in 30 mM Tris-HCl, pH 8.0, 5 mM NaCl, 0.1% Triton X-100 for 10 min on ice. The supernatants from spinning (14 k rpm for 10 min) were collected. The protein concentrations were determined by BCA assay (Pierce, ThermoFisher). Equal amounts of protein were loaded onto 4-12% gel. After electrophoresis, the gels were transferred to nitrocellulose membranes by wet transfer at 35V for 16 hr. The protein level of mutant HTT, total HTT and tubulin were determined by immunoblotting with anti-poly Glutamine (MAB1574 from Millipore), anti-Huntingtin protein (MAB2166 from Millipore) and anti-alpha tubulin (AJ1034a from ABGENT). Blots were imaged on a Li-Cor Odyssey infrared imager. The bands intensities were determined by Li-Cor Odyssey software.
(§2) To test whether the nucleoside 6-Azauridine (HD101) and (−)-6-Azauridine 2′,3′,5′-triacetate (HD106) can affect the expression of proteins with long polyQ domains, one iPSC (induced pluripotent stem cell) line ND36999, which was derived from a Huntington's disease patient who carries one allele of mutant htt gene with 180 CAG repeats, was purchased from the Coriell Institute. The iPSCs were plated into a 24-well plate coated with Matrigel. […] Cells were lysed and the protein concentrations were determined by BCA assay. […] The image (FIG. 10) was taken and the quantification was made by Li-Cor Odyssey imaging system.

[2] = system: total Huntingtin protein; test: Western blot of total HTT in Huntington's disease patient iPSC ND36999; assay type: cell-based, human; details: iPSC with 180 CAG repeats, 24 hr
Method: as §1, §2

[3] = target: T1, Supt4h-YC / Supt5h NGN-YN interaction (Homo sapiens, UniProt O00267+P63272); test: Bimolecular fluorescence complementation (BiFC) assay in 2-PN4 stable cells; assay type: cell-based; details: 24 hr with Doxycycline 4 μg/ml
T1 construct: NGN-YN is a genetic engineered protein in which Supt5h NGN domain is fused to YFP YN; expressed in transfected cells
Method: Human Supt4h and Supt5hNGN were fused in-frame with the YC and YN respectively. The YN and YC represent the N- and C-terminal domain of yellow fluorescent protein Venus. To prevent a change in protein folding caused by the conjugation of two polypeptides (Kerppola, “Design and implementation of bimolecular fluorescence complementation (BiFC) assays for the visualization of protein interactions in living cells,” Nature protocols (2006) 1:1278-1286), a protein linker containing additional 10 amino acid residues was included in the fusion protein. Also, extra amino acids GSHM were incorporated into the Supt5hNGN to increase its protein stability (Wenzel et al., “Crystal structure of the human transcription elongation factor DSIF hSpt4 subunit in complex with the hSpt5 dimerization interface,” The Biochemical journal (2010) 425:373-380). Supt4h, NGN, YC, and YN were amplified by PCR to generate DNA fragments containing the nucleotide sequence of protein linker. Supt4h and NGN PCR products then were mixed with the PCR product of YN or YC for secondary overlapping PCR. Finally, the resulting Supt4h-YC and NGN-YN DNA fragment was cloned into plasmid vector pcDNA3-HA and pFLAG-CMV-2 respectively.
(§3) Tet-on HeLa cells were transfected with linearized pTRE-HA-Supt4h-VC-Flag-NGN-VN plasmid construct using LipofectAMINE 2000 (Invitrogen). After transfection, cells were cultured initially in growth medium containing puromycin (1 μg/ml) and then selected for clones that show YFP fluorescence in the presence of tetracycline (4 μg/ml). The stable line having the strongest fluorescence signal was isolated and designated as 2-PN4. Likewise, 21-VS stable line was created using pTRE-HA-Venus.
(§4) Stable lines 2-PN4 and 21-VS were pre-cultured in 6-well plates, followed by an incubation of Doxycycline (4 μg/ml) together with various concentrations of chemical compounds for 24 hr. Cells were washed with PBS (Sigma) and monitored by microscope (20× magnification). Photos were taken using Nikon D500 camera with a setting of ISO 1600, shutter 1/200 for the light images, and shutter ½ for the fluorescence images. For quantification of fluorescence intensity, 5 photos with similar cell number were taken and the fluorescence signal was measured by Metamorph software individually. The average of overall fluorescence signal was determined and compared to the one observed in DMSO-treated control sample.
For the purpose of high-throughput drug screening, based on the BiFC method as mentioned above, we have created a stable cell line that co-expresses NGN-YN and Supt4h-YC under the control of a tet-on inducible promoter. […] If the complementation that is driven by NGN and Supt4h interaction is inhibited by a given test compound, the de novo YFP fluorescence signal is affected. […]

[4] = system: 21-VS cells (HA-Venus); test: Control fluorescence of 21-VS stable cells expressing intact Venus; assay type: cell-based; details: same experimental conditions as 2-PN4 cells
Method: The HA-Supt4h-YC and FLAG-NGN-YN fragments were amplified by PCR using plasmid constructs described above and sub-cloned individually into the pTRE-tight-BI vector (Clontech Laboratories), which contain a bi-directional CMV promoter under the control of tetracycline. The coding sequence of yellow fluorescence protein Venus with a HA-epitope in its N-terminus was PCR-amplified and cloned into the vector to generate pTRE-HA-Venus.
as §3, with “Likewise, 21-VS stable line was created using pTRE-HA-Venus.” left out
as §4, with “For quantification of fluorescence intensity, 5 photos with similar cell number were taken and the fluorescence signal was measured by Metamorph software individually.” left out, “sample. […]” for “sample.”

[5] = system: Supt4h-YC and NGN-YN protein expression; test: Western blot of Supt4h-YC and NGN-YN protein levels in 2-PN4 cells; assay type: cell-based, human
Method: As described (Liu et al., “Spt4 is selectively required for transcription of extended trinucleotide repeats,” Cell (2012) 148:690-701), equal amounts of protein were resolved by electrophoresis on 12% sodium dodecyl sulfate (SDS)-polyacrylamide gels, and transferred onto nitrocellulose membranes (nitrocellulose, Waterman 0.45 μM, NBA085C). After blocking with 5% low-fat milk in Tris-buffer saline containing 0.1% Tween-20, membranes were probed with primary antibodies, incubated with a horseradish peroxidase (HRP)-conjugated secondary antibody, and detected by ECL reagent (enhanced chemiluminescence, PerkinElmer).

[6] = target: T2, Supt4h-YC / NGN-YN complex (Homo sapiens, UniProt O00267+P63272); test: Co-immunoprecipitation of HA-Supt4h-YC with Flag-NGN-YN from 2-PN4 cells; assay type: cell-based; details: 20 μM, 36 hr, immunoprecipitation with anti-HA
T2 construct: NGN-YN is a genetic engineered protein in which Supt5h NGN domain is fused to YFP YN; expressed in transfected cells
Method: 2-PN4 cells, following a treatment of 6CR (Cf=20 μM) for 36 hr, were lysed with modified RIPA buffer (50 mM Tris-HCl [pH 7.5], 150 mM NaCl, 1% NP-40, 1% sodium deoxycholate), supplement with 1 mM Na3VO4, 1 mM DTT, 1 mM PMSF and protease inhibitor cocktail (Sigma). The collected protein lysates (1 mg) were diluted with modified RIPA buffer to a final volume of 0.5 ml and then incubated with anti-HA antibodies (1 μg) overnight. Following incubation with protein A agarose beads (Millipore) for another 6 hr, the beads were washed twice with modified RIPA buffer containing 20 μM 6CR. All of these performances were carried out at 4° C. For detection of proteins that coprecipitated with HA-Supt4h-YC, the immunocomplex was fractionated by SDS-PAGE, followed by Western blotting analysis with anti-HA and anti-FLAG antibodies.

[7] = system: mutant Htt gene; test: RT-PCR of Htt mRNA in Hdh Q111/Q111 striatal cells; assay type: cell-based, mouse; details: compared to mock control
Method: (§5) Tet-on HeLa cells (Clontech Laboratories), and stable line 2-PN4 and 21-VS were cultured in DMEM (Gibco) supplemented with 10% Tet-off fetal bovine serum (Gibco) at 37° C. with 5% CO2. Hdh Q7/Q7 (mouse), Hdh Q111/Q111 (mouse) were cultured in DMEM (HyClone) supplemented with 10% fetal bovine serum at 33° C. with 5% C02.
(§6) Total RNA was extracted from murine neuronal cells using TRI Reagent (Sigma). For cDNA conversion, 2 μg of total RNA was mixed with 5 μM random primer, 5 μM SnRNA U6 rt-PCR primer and 500 μM dNTPs, incubated at 65° C. for 5 min and then chilled on ice. After addition of First-Strand Buffer, DTT (Cf=10 mM) and 1 μl reverse transcriptase (Invitrogen), the reaction was carried out at 42° C. for 1 hr. Equal volumes of cDNA products were PCR amplified and resolved on 2.5% agarose gels to determine the abundance of Htt transcripts after normalization with U6 or 18S ribosomal RNA.

[8] = system: wild-type Htt gene; test: RT-PCR of Htt mRNA in Hdh Q7/Q7 striatal cells; assay type: cell-based, mouse; details: compared to mock control
Method: as §5, §6

SMILES	mutant Huntingtin protein level [1]	total Huntingtin protein expression level [2]	fluorescence intensity of 2-PN4 cells relative to control sample ([3]; 10 μM)	BiFC fluorescence signal of 2-PN4 cells ([3]; various concentrations)	fluorescence signal of 21-VS cells [4]	protein expression of Supt4h-YC and NGN-YN [5]	complex formation of Supt4h-YC and NGN-YN [6]	Htt mRNA transcribed from mutant allele [7]	Htt mRNA in cells with homozygous wild-type Htt allele [8]
CC(=O)OC[C@H]1O[C@@H](n2ncc(=O)[nH]c2=O)[C@H](OC(C)=O)[C@@H]1OC(C)=O [HD106, (−)—6-Azauridine 2′,3′,5′-Triacetate]	preferentially decrease mutant Huntingtin protein in a dose dependent manner; also recorded: reduced mutant huntingtin expression in a dose dependent manner	little effect	–	–	–	–	–	–	–
OC[C@H]1O[C@@H](n2cnc3c(Cl)ncnc32)C(O)C1O (stereo partly drawn) [6CR, 6-Chloropurine riboside]	–	–	decreased to half of control sample	reduces the fluorescence signal of 2-PN4 cells in a concentration-dependent manner; also recorded: inhibits Supt4h-YC and NGN-YN interaction	not altered	does not interfere with the protein expression	lower the complex formation	down-regulated; also recorded: reduces the expression of mutant Htt gene	not detectable
